# Test results as given in patent publication US10160705B2, “Class of HDAC inhibitors expands the renal progenitor cells population and improves the rate of recovery from acute kidney injury” (University of Pittsburgh—Of the Commonwealth System of …, priority 2011, dated 2018).
# Read-outs that look alike come from different tables or passages of the source.
# Experiments:
# kidney field = assay: In situ hybridization for kidney markers (pax2a, pax8, cdh17, wt1a, slc4a4, slcl2a1); format: in vivo, zebrafish; details: in situ hybridization, data not shown
# Protocol: PTBA was synthesized as described below. Hydroxyurea and aphidicolin were obtained from Sigma-Aldrich.
# In situ hybridization and immunocytochemistry: In situ hybridization was performed as previously described with some modifications.142 Hybridization temperature was 65° C. Embryos were blocked in 2% blocking reagent (Roche) with 5% sheep serum in MAB (100 mM maleic acid and 150 mM NaCl [pH 7.5]). Whole-mount immunocytochemistry with 1:25 mouse anti-α6F antibody (Developmental Studies Hybridoma Bank) and 1:100 Cy3 secondary antibody (Jackson ImmunoResearch) was performed as described previously.108 Embryos were embedded in JB-4 for sectioning per the manufacturer's instructions (Polysciences), sectioned at 5 μm, and mounted with Cytoseal 60 (Richard-Allan Scientific).
# zebrafish embryos = assay: Phenotypic screen for edema and survival in zebrafish larvae at 72 hpf; details: for phenotype in initial chemical screen: 10 μM, larvae at 72 hpf; for Dead / Edemic 1 (E1) / Edemic 2 (E2) / Edemic 3 (E3) / Wild-type (WT): number of larvae (of 36), 3 μM from 2 hpf, scored at 72 hpf
# Protocol: The screen was performed in zebrafish embryos using the National Cancer Institute's Developmental Therapeutics Program (NCI/DTP) Diversity Set I. This library contains 1990 compounds selected by pharmacophore modeling to represent the more than 140,000 small molecules maintained in the NCI/DTP Open Repository. Compounds from the NCI/DTP Diversity Set I were diluted to 10 μM in E3 embryo medium (5 mM NaCl, 0.33 mM CaCl2, 0.33 mM MgSO4, and 0.17 mM KCl) in a final DMSO concentration of 0.5% and arrayed in 96-well plates. Beginning at approximately 2 hpf, embryos were transferred to each well in groups of five using a glass pipette. The plates were incubated at 28.5° C. for 70 hours. Individual wells were then scored for a dominant phenotype, representative of at least four of the five embryos. The primary objective was to identify compounds that caused edema in treated embryos at 72 hpf. Small molecules generating edema were retested once for verification, before obtaining additional compound from the NCI/DTP Open Repository.
# PTBA was synthesized as described below. Hydroxyurea and aphidicolin were obtained from Sigma-Aldrich. Groups of 20 to 30 chorionated 2 hpf embryos were arrayed in individual wells of 12-well plates. E3 medium was removed with a glass pipette and replaced with 1.5 ml treatment solutions containing 0.5% DMSO in E3 with or without compound at the reported concentrations. Treatments for all studies were initiated at 2 hpf, except for the temporal studies (FIG. 6) and the HUA studies (FIG. 11). HUA studies were performed as described previously (Zhang, L., et al. Cell cycle progression is required for zebrafish somite morphogenesis but not segmentation clock function. Development 135, 2065-2070, (2008)), with the following modifications. HUA in 0.5% DMSO was added at early gastrulation (5 hpf) and PTBA was subsequently added at late gastrulation (8 hpf) to allow for penetration of the proliferation inhibitors. All embryos were incubated at 28.5° C. until the required developmental stage.
# Following 70 hours of treatment (as described above), edemic phenotypes in 72 hpf larvae were scored using a phenotype-based classification system. Wild type: no visible edema or developmental delay. […] Significant effects (p<0.05) on survival were determined by two-tailed Fisher's exact test in comparison with the 0 μM PTBA treatment group.
# PTBA and methyl-4-(phenylthio)butanoate were synthesized as described above. 4-(Naphthalen-2-ylthio)butanoic acid (NSC2733) and 3-(phenylthio)benzoic acid (NSC113994), were obtained from the NCI/DTP Open Repository. APHA compound 8, Apicidin, butanoic acid, PBA, 4-phenoxybutanoic acid, 5-phenylpentanoic acid, Scriptaid, TSA, and valproic acid were obtained from Sigma-Aldrich. MS-275 and SAHA were obtained from Cayman Chemical Co. 4-(phenylsulfonyl)butanoic acid was obtained from Matrix Scientific. Tubacin was a gift of Dr. Ralph Mazitschek of the Broad Institute (Cambridge, Mass.). The remaining PTBA analogs were synthesized. Three independent groups of 12 chorionated 2 hpf embryos were arrayed in individual wells of 24-well plates. E3 medium was removed with a glass pipette and replaced with 800 μl treatment solutions containing 0.5% DMSO in E3 with or without compound at the reported concentrations.
# Phenotypic screening of PTBA analogs was performed identically to the concentration-response experiments detailed above. Embryos were treated with each PTBA analog from 2 to 72 hpf as described above.
# renal progenitor cells = assay: In situ hybridization for lhx1a expression in 10-somite embryos (renal progenitor cell expansion); format: in vivo; details: for Lhx1a expansion caused by analog treatment, 200 nM: 200 nM from 2 hpf; for Lhx1a expansion caused by analog treatment, 400 nM: 400 nM from 2 hpf; for Lhx1a expansion caused by analog treatment, 800 nM: 800 nM from 2 hpf; for Lhx1a expansion caused by analog treatment, 200 nM: key: effective (+); partially effective (+/−); ineffective (−); Analogs that killed all embryos at a given concentration before reaching 10 somites are listed as XX; for Lhx1a expansion caused by analog treatment, 3 μM: key: effective (+); partially effective (+/−); ineffective (−); Analogs that killed all embryos at a given concentration before reaching 10 somites are listed as XX; for Lhx1a expansion caused by analog treatment, 400 nM: key: effective (+); partially effective (+/−); ineffective (−); Analogs that killed all embryos at a given concentration before reaching 10 somites are listed as XX; for Lhx1a expansion caused by analog treatment, 800 nM: key: effective (+); partially effective (+/−); ineffective (−); Analogs that killed all embryos at a given concentration before reaching 10 somites are listed as XX
# Procedure, shortened: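 Zebrafish embryos treated with compound, then colorimetric whole-mount in situ hybridization (65° C) for lhx1a mRNA at 10 somites. Embryos with expanded kidney field counted manually as percent of total. EC50 taken as 50% point of percent-expansion trendline; compounds also classed effective, partial or ineffective versus PTBA at matched concentration.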
# human HDACs = assay: Fluorescence histone deacetylation assay with HeLa cell nuclear extract; format: biochemical; details: 5 mM compound
# Protocol: To evaluate this in vitro, the deacetylation of a fluorescent peptide substrate was measured in the presence of human HDACs.
# In vitro HDAC activity assays were performed using a fluorescence HDAC assay kit (Active Motif) according to the manufacturer's instructions. For maintaining compound solubility at 5 mM, the final DMSO concentration in all assay wells was increased to 5%. Fluorescence was detected using an M5 Plate Reader ([…])
# [1] = 3 μM from 2 hpf, 10-somite embryos
# [2] = 1.5 μM from 2 hpf, 10-somite embryos
# [3] = Danio rerio, 1.5 μM from 2 hpf, 10-somite embryos, read-out: lhx1a expansion, percent of treated embryos
# [4] = Danio rerio, percent of embryos with expanded kidney field, 400 nM, read-out: Expansion of Cells (including repeats* and recounts**) 400 nM
# [5] = Danio rerio, percent of embryos with expanded kidney field, 1.5 μM, read-out: Expansion of Cells (including repeats* and recounts**) 1.5 μM
# [6] = Danio rerio, percent of embryos with expanded kidney field, 3 μM, read-out: Expansion of Cells (including repeats* and recounts**) 3 μM
# [7] = Danio rerio, 3 μM from 2 hpf, 10-somite embryos, read-out: lhx1a expansion, percent of treated embryos
SMILES,"Lhx1a expansion caused by analog treatment, 3 μM (renal progenitor cells; [1])",Dead (zebrafish embryos),Edemic 1 (E1) (zebrafish embryos),Edemic 2 (E2) (zebrafish embryos),Edemic 3 (E3) (zebrafish embryos),Wild-type (WT) (zebrafish embryos),other results
N=C(N)c1ccc(N=Nc2c(O)ccc3c2[nH]c2ccccc23)cc1 [NSC357777],,,,,,,size of the kidney field (kidney field): did not affect the size of the kidney field; phenotype in initial chemical screen (zebrafish embryos): pericardial edema
"O=C(O)CCCS(=O)(=O)c1ccccc1 [PSOBA, 4-(phenylsulfonyl)butanoic acid, reference compound]",−,0,0,0,0,36,"lhx1a expansion, percent of treated embryos (renal progenitor cells; [1]): no ability to expand renal progenitor cells; HDAC activity elicited by 10 μg HeLa extract, percent of the control value (human HDACs): 70%"
COc1ccc(/C=C(\C#N)C(N)=O)c(OC)c1 [NSC134664],,,,,,,size of the kidney field (kidney field): did not affect the size of the kidney field; phenotype in initial chemical screen (zebrafish embryos): pericardial edema
"O=C(CCCCCCC(=O)Nc1ccc([C@H]2O[C@@H](CSc3nc(-c4ccccc4)c(-c4ccccc4)o3)C[C@@H](c3ccc(CO)cc3)O2)cc1)NO [tubacin, reference compound]",−,0,0,0,0,36,effect on zebrafish embryos in the phenotypic screen (zebrafish embryos; 3 μM): appeared wild-type
"Cc1ccc(SCCCC(=O)NO)cc1 [UPHD-00028, N-hydroxy-4-[(4-methyl-phenyl)sulfanyl]butanamide]",+,22,0,0,14,0,"Lhx1a expansion caused by analog treatment, 200 nM (renal progenitor cells; 10-somite embryos): −; Lhx1a expansion caused by analog treatment, 400 nM (renal progenitor cells; 10-somite embryos): −; Lhx1a expansion caused by analog treatment, 800 nM (renal progenitor cells; 10-somite embryos): +; Lhx1a expansion caused by analog treatment, 1.5 μM (renal progenitor cells; [2]): +; responders at 1.5 µM (renal progenitor cells; [3]): 97%; responders at 0.4 µM (renal progenitor cells; [4]): 9%; responders at 0.8 µM (renal progenitor cells; Danio rerio, percent of embryos with expanded kidney field, 800 nM, read-out: Expansion of Cells (including repeats* and recounts**) 800 nM): 61%; responders at 1.5 µM (renal progenitor cells; [5]): 97%; responders at 3 µM (renal progenitor cells; [6]): 100%; Expansion of Cells (including repeats* and recounts**) 3 μM (renal progenitor cells; percent of embryos with expanded kidney field, 3 μM): 100%"
COC(=O)CCCSc1ccc(Br)cc1 [VNK-I-290],+/−,0,27,1,0,8,responders at 3 µM (renal progenitor cells; [7]): 74%
"CCCOC(=O)CCCSc1ccccc1 [UPHD-00024, propyl 4-(phenylsulfanyl)butanoate]",+,6,7,8,15,0,"Lhx1a expansion caused by analog treatment, 800 nM (renal progenitor cells; 10-somite embryos): +/−; Lhx1a expansion caused by analog treatment, 1.5 μM (renal progenitor cells; [2]): +; responders at 1.5 µM (renal progenitor cells; [3]): 89%; responders at 0.2 µM (renal progenitor cells; Danio rerio, percent of embryos with expanded kidney field, 200 nM, read-out: Expansion of Cells (including repeats* and recounts**) 200 nM): 0%; responders at 0.4 µM (renal progenitor cells; [4]): 10%; responders at 1.5 µM (renal progenitor cells; [5]): 89%; responders at 3 µM (renal progenitor cells; [6]): 94%; EC50 (renal progenitor cells; Danio rerio, first pass EC50 from percent expansion (Excel trendline), average where several experiments): 1270 nM"
CC(C)(C)OC(=O)CCCSc1ccccc1 [tert-butyl 4-(phenylthio)butanoate],+/−,0,3,0,0,33,responders at 3 µM (renal progenitor cells; [7]): 25%
N=C(N)SCc1ccc(Cl)cc1Cl.O=[N+]([O-])c1c(O)c(Cl)cc(Cl)c1Cl [NSC35400],,,,,,,size of the kidney field (kidney field): did not affect the size of the kidney field; phenotype in initial chemical screen (zebrafish embryos): pericardial edema
"CCC(=O)CCCCC[C@@H]1NC(=O)[C@H]2CCCCN2C(=O)[C@H]([C@@H](C)CC)NC(=O)[C@H](Cc2cn(OC)c3ccccc23)NC1=O [apicidin, reference compound]",,36,0,0,0,0,"Lhx1a expansion caused by analog treatment, 200 nM (renal progenitor cells; 10-somite embryos): −; Lhx1a expansion caused by analog treatment, 400 nM (renal progenitor cells; 10-somite embryos): +/−; treated embryos killed (renal progenitor cells; 800 nM): 69%; Lhx1a expansion caused by analog treatment, 800 nM (renal progenitor cells; 10-somite embryos): XX^1; embryos surviving treatment (renal progenitor cells; 800 nM, n=36): 31%; lethality before the 10-somite stage (renal progenitor cells; 1.5 μM): lethal; lethality before the 10-somite stage (renal progenitor cells; 3 μM): killed all treated embryos; responders at 0.4 µM (renal progenitor cells; Danio rerio, read-out: lhx1a expansion, percent of treated embryos, 400 nM from 2 hpf, 10-somite embryos): 22%"
"O=C(O)CCCOc1ccccc1 [4-phenoxybutanoic acid, reference compound]",−,0,0,0,0,36,responders at 3 µM (renal progenitor cells; [7]): 13%
